Each molecule was assayed against Serine/threonine-protein kinase PLK1 (Homo sapiens, UniProt P53350) (assay: H2O2 production by redox-active compounds – biochemical, 1 mM DTT, artefact control for Plk1 PBD inhibitor project, dose response (AID 936)).
Chain of Serine/threonine-protein kinase PLK1 (P53350 whole entry): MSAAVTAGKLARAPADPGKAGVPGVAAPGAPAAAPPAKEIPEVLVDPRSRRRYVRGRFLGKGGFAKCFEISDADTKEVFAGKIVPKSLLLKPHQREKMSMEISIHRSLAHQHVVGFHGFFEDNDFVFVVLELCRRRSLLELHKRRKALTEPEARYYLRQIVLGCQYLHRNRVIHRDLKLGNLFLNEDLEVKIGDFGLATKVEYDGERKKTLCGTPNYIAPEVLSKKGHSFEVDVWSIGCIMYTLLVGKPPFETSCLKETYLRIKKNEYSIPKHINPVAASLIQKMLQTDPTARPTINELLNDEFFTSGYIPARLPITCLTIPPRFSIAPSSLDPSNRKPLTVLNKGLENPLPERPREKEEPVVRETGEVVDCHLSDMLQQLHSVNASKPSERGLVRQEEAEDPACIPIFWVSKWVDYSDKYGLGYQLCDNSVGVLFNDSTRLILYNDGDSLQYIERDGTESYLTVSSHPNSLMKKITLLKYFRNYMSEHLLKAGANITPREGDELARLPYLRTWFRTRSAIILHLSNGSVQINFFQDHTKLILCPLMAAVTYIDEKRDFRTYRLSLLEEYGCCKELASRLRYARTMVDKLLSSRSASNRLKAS
With `C=CCSc1nccc(-c2cc(Cl)sc2Cl)n1` [2-(allylsulfanyl)-4-(2,5-dichloro-3-thienyl)pyrimidine] the EC50 was > 50 µM.
For `COC(=O)c1ccccc1NC1=CC(=NS(=O)(=O)c2cccs2)c2ccccc2C1=O` [methyl 2-[[(4E)-1-oxidanylidene-4-thiophen-2-ylsulfonylimino-naphthalen-2-yl]amino]benzoate], the EC50 was > 50 µM.
With `Cc1nc2cccc(C)n2c(=O)c1Cl` [3-chloranyl-2,6-dimethyl-pyrido[1,2-a]pyrimidin-4-one] the EC50 was > 50 µM.
In the case of `Cc1ccc(CNC(=O)c2cc3c(=O)n(C)c4ccccc4c3n2C)cc1` [1,5-dimethyl-N-[(4-methylphenyl)methyl]-4-oxidanylidene-pyrrolo[3,2-c]quinoline-2-carboxamide], the EC50 is reported as > 50 µM.
With `CC(C)OCCCNC(=O)c1ccc(NC(=O)C2CCCO2)cc1` (configuration not stated) [MLS000086701] the EC50 was > 50 µM.
With `COc1ccc(S(=O)(=O)N(C)CC(=O)Nc2ccccc2C(F)(F)F)cc1` [2-[(4-methoxyphenyl)sulfonyl-methyl-amino]-N-[2-(trifluoromethyl)phenyl]acetamide] the EC50 was > 50 µM.
In the case of `CCOC(=O)c1c2c(n(C)c1C)C(=O)C(=O)c1ccc(Br)cc1-2` [8-bromo-2,3-dimethyl-4,5-dioxo-1-benzo[e]indolecarboxylic acid ethyl ester], the EC50 is reported as 0.723 µM.
With `Cn1c(=O)c2c(ncn2CCCc2ccccc2)n(C)c1=O` [1,3-Dimethyl-7-(3-phenyl-propyl)-3,7-dihydro-purine-2,6-dione] the EC50 was > 50 µM.
In the case of `O=NCc1cc(Br)ccc1OCC(=O)O` [2-[4-bromanyl-2-(hydroxyiminomethyl)phenoxy]ethanoic acid], the EC50 is reported as > 50 µM.
`COc1ccc(C(C)C)cc1S(=O)(=O)Nc1ccc(Cl)cn1` [MLS000071127] was tested, and the EC50 was > 50 µM.
With `Cc1nn(C(C)C(=O)N2CCCCC2)c(=O)c2c1sc1ccccc12` (configuration not stated) [2-(2-keto-1-methyl-2-piperidino-ethyl)-4-methyl-benzothiopheno[2,3-d]pyridazin-1-one] the EC50 was > 50 µM.
`CCOC(=O)c1ccc(NC(=O)c2c(O)[nH]c(=O)[nH]c2=O)cc1` was tested, and the EC50 was > 50 µM.
For `CCC(=O)Nc1ccc(-c2nnc(SCC(=O)Nc3nccs3)n2C)cc1` [MLS000076456], the EC50 was > 50 µM.
With `COc1cc(S(=O)(=O)N2CCCCCC2)ccc1-n1cnnn1` [1-(3-Methoxy-4-tetrazol-1-yl-benzenesulfonyl)-azepane] the EC50 was > 50 µM.
For `CC(=O)N(N=C1Sc2ccccc2C1=O)c1cccc(C)c1` [N-(3-methylphenyl)-N-[(3-oxidanylidene-1-benzothiophen-2-ylidene)amino]ethanamide], the EC50 was > 50 µM.
In the case of `O=C(Nc1ccccn1)C1CCN(S(=O)(=O)c2cccc3nonc23)CC1` [1-(2,1,3-benzoxadiazol-4-ylsulfonyl)-N-(2-pyridinyl)-4-piperidinecarboxamide], the EC50 is reported as > 50 µM.
`CC(C)Sc1nc(N2CCOCC2)c2c(c1C#N)CC(C)(C)N(C)C2` [3-(isopropylthio)-6,6,7-trimethyl-1-morpholino-5,8-dihydro-2,7-naphthyridine-4-carbonitrile] was tested, and the EC50 was > 50 µM.
In the case of `Cc1oc2c(c1C(=O)c1ccccc1)C(=O)C(=O)c1ccccc1-2` [2-methyl-3-(phenylcarbonyl)benzo[g][1]benzofuran-4,5-dione], the EC50 is reported as > 50 µM.
For `O=C(Nc1cccn(Cc2c(Cl)cccc2Cl)c1=O)c1c(Cl)cccc1Cl` [2,6-dichloro-N-[1-(2,6-dichlorobenzyl)-2-keto-3-pyridyl]benzamide], the EC50 was > 50 µM.
For `COc1ccc2c(c1OC)C(=O)OC2CC(=O)O` (configuration not stated) [(4,5-dimethoxy-3-oxo-1,3-dihydro-2-benzofuran-1-yl)acetic acid], the EC50 was > 50 µM.
In the case of `CCC(C)c1ccc(NC(=O)C2CC2)cc1` (configuration not stated) [MLS000110184], the EC50 is reported as > 50 µM.
For `O=C1CCC(C(=O)O)(c2ccccc2)C1` (configuration not stated) [3-Oxo-1-phenyl-cyclopentanecarboxylic acid], the EC50 was > 50 µM.
For `CC(=O)N(N=C1Sc2ccccc2C1=O)c1ccccc1` [N-[(Z)-(3-ketobenzothiophen-2-ylidene)amino]-N-phenyl-acetamide], the EC50 was > 50 µM.
`CCNC(=O)NC(=O)C(C)OC(=O)c1cccnc1SC` (configuration not stated) [2-(methylthio)-3-pyridinecarboxylic acid [1-(ethylcarbamoylamino)-1-oxopropan-2-yl] ester] was tested, and the EC50 was > 50 µM.
With `Cc1[nH]n2c(=O)cc(-c3ccc([N+](=O)[O-])cc3)nc2c1-c1ccccc1` [MLS000547439] the EC50 was > 50 µM.
In the case of `O=C(c1ccc(-n2cnnn2)cc1)N1CCCCC1` [1-piperidinyl-[4-(1-tetrazolyl)phenyl]methanone], the EC50 is reported as > 50 µM.
For `Cc1ccc2c(c1)CC1(CN2C)C(=O)NC(=O)N(c2ccccc2C)C1=O` (configuration not stated) [1',6'-dimethyl-1-(2-methylphenyl)spiro[1,3-diazinane-5,3'-2,4-dihydroquinoline]-2,4,6-trione], the EC50 was > 50 µM.
With `Cc1ccc(NC2=CC(=NS(=O)(=O)c3cccs3)c3ccccc3C2=O)c(C)c1` the EC50 was > 50 µM.
For `O=C(NCCc1ccccc1)/C(=C\c1ccc([N+](=O)[O-])cc1)NC(=O)c1ccccc1` [MLS000575866], the EC50 was > 50 µM.
In the case of `CCc1noc(C)c1C(=O)N1CCOCC1` [(3-ethyl-5-methyl-1,2-oxazol-4-yl)-morpholin-4-yl-methanone], the EC50 is reported as > 50 µM.
For `Cc1ccc(C(=O)c2c[nH]c(C(=O)NCCCN3CCOCC3)c2)cc1` [4-(4-methylbenzoyl)-N-(3-morpholin-4-ylpropyl)-1H-pyrrole-2-carboxamide], the EC50 was > 50 µM.
With `CN(C)c1ccc(C(=O)Nc2nc3c(s2)CCCC3)cc1` [4-(dimethylamino)-N-(4,5,6,7-tetrahydro-1,3-benzothiazol-2-yl)benzamide] the EC50 was > 50 µM.
With `Cc1ccccc1Oc1ncnc2oc(-c3ccccc3)cc12` [4-(2-methylphenoxy)-6-phenyl-furo[2,3-d]pyrimidine] the EC50 was > 50 µM.
`O=c1[nH]cc(COCc2ccccc2)c(=O)[nH]1` was tested, and the EC50 was > 50 µM.
`CCN1C(=O)/C(=C/c2nc3ccccc3c(=O)n2-c2ccccc2)c2ccccc21` [2-[(1-ethyl-2-oxo-1,2-dihydro-3H-indol-3-ylidene)methyl]-3-phenyl-4(3H)-quinazolinone] was tested, and the EC50 was > 50 µM.
In the case of `CC1CN(C2CC(C)(C)NC(C)(C)C2)CCC1=O` (configuration not stated) [3-methyl-1-(2,2,6,6-tetramethyl-4-piperidinyl)-4-piperidinone], the EC50 is reported as > 50 µM.
`COc1cc(OC)cc(C(=O)NCCCN2CCOCC2)c1` [3,5-Dimethoxy-N-(3-morpholin-4-yl-propyl)-benzamide] was tested, and the EC50 was > 50 µM.
With `C=CCn1c2ccccc2c2nnc(SCc3ccc4nonc4c3)nc21` [5-[(5-prop-2-enyl-[1,2,4]triazino[5,6-b]indol-3-yl)sulfanylmethyl]-2,1,3-benzoxadiazole] the EC50 was > 50 µM.
In the case of `CNC(=O)CC(C(=O)O)c1ccc(OCC(C)C)cc1` (configuration not stated) [2-(4-Isobutoxy-phenyl)-N-methyl-succinamic acid], the EC50 is reported as > 50 µM.
With `COc1cccc(OC)c1C(=O)N1CCN(c2ccccn2)CC1` [(2,6-dimethoxyphenyl)-(4-pyridin-2-ylpiperazin-1-yl)methanone] the EC50 was > 50 µM.
With `Nc1cc(-c2ccc(Br)cc2)nn1S(=O)(=O)c1cccc2nsnc12` [2-(2,1,3-benzothiadiazol-4-ylsulfonyl)-5-(4-bromophenyl)-3-pyrazolamine] the EC50 was > 50 µM.
In the case of `Cn1cc(SCC(=O)Nc2ccc3c(c2)OCCO3)c2ccccc21` [MLS000529783], the EC50 is reported as > 50 µM.
For `Oc1ccc2ccc3cccc[n+]3c2c1` [9-benzo[c]quinolizin-11-iumol;iodide], the EC50 was > 50 µM.
In the case of `CN1C(=O)N(C)C(=O)C2(Sc3ccccc3C2=O)C1=O` [1',3'-dimethylspiro[benzothiophene-2,5'-hexahydropyrimidine]-2',3,4',6'-diquinone], the EC50 is reported as > 50 µM.
`c1ccc(NCc2nnc3n2CCCCC3)cc1` [MLS000057041] was tested, and the EC50 was > 50 µM.
`NC(=O)C1(N2CCCCC2)CCN(C(=O)NC2CCCCC2)CC1` [1-N-cyclohexyl-4-piperidin-1-ylpiperidine-1,4-dicarboxamide] was tested, and the EC50 was > 50 µM.
In the case of `Cc1cccc2[nH]c3c(N4CCN(C(=O)c5ccco5)CC4)ncnc3c12` [SMR000148910], the EC50 is reported as > 50 µM.
`COc1ccc2c3c(cccc13)NN=C2C` [6-Methoxy-3-methyl-1H-benzo[de]cinnoline] was tested, and the EC50 was > 50 µM.
For `O=C(COc1ccccc1)Nc1ccc(S(=O)(=O)N2CCOCC2)cc1` [MLS000108227], the EC50 was > 50 µM.
In the case of `CCn1ncc(CN2CCN(C(=O)Nc3ccccc3C(=O)OC)CC2)c1C` [2-[[4-[(1-ethyl-5-methyl-pyrazol-4-yl)methyl]piperazine-1-carbonyl]amino]benzoic acid methyl ester], the EC50 is reported as > 50 µM.
In the case of `O=C1C(=O)c2ccccc2-c2ccccc21`, the EC50 is reported as > 50 µM.
For `CCCc1nc2sc3c(c2c(=O)n1NC(=O)CCC(=O)O)CCCC3` [4-keto-4-[(4-keto-2-propyl-5,6,7,8-tetrahydrobenzothiopheno[2,3-d]pyrimidin-3-yl)amino]butyric acid], the EC50 was > 50 µM.
With `CCC(Sc1nc2nnc(C)c-2c(N)n1-c1cccc(Cl)c1)C(=O)NCCOC` (configuration not stated) [2-[4-amino-5-(3-chlorophenyl)-3-methylpyrazolo[3,4-d]pyrimidin-6-yl]sulfanyl-N-(2-methoxyethyl)butanamide] the EC50 was > 50 µM.
In the case of `C/C(=C\C(=O)Nc1cc(C)on1)c1ccccc1` [(E)-N-(5-methyl-1,2-oxazol-3-yl)-3-phenyl-but-2-enamide], the EC50 is reported as > 50 µM.
In the case of `CCOC(=O)Cc1csc(NC(=O)CSc2nnc(-c3ccc(F)cc3)o2)n1` [(2-{2-[5-(4-Fluoro-phenyl)-[1,3,4]oxadiazol-2-ylsulfanyl]-acetylamino}-thiazol-4-yl)-acetic acid ethyl ester], the EC50 is reported as > 50 µM.
With `CC1Cn2c(nnc2-c2cc3ccccc3cc2O)S1` (configuration not stated) [(3E)-3-(6-methyl-5,6-dihydro-2H-[1,3]thiazolo[2,3-c][1,2,4]triazol-3-ylidene)naphthalen-2-one] the EC50 was > 50 µM.
In the case of `Nc1cc2nsnc2cc1Br` [(6-bromopiazthiol-5-yl)amine], the EC50 is reported as > 50 µM.
For `O=C(NC1(O)C(=O)c2ccccc2C1=O)c1ccccc1` [N-(2-hydroxy-1,3-dioxo-2-indenyl)benzamide], the EC50 was > 50 µM.
For `Nc1ccc2c(c1)C(=O)C(=O)c1ccccc1-2` [2-Amino-phenanthrene-9,10-dione], the EC50 was > 50 µM.
For `CCc1nc2cc(Cl)c(Cl)cc2[nH]1` [MLS000064722], the EC50 was > 50 µM.
`O=C(NC1(C(F)(F)F)NC(=O)N(CC2CCCCC2)C1=O)c1ccco1` (configuration not stated) [MLS000040678] was tested, and the EC50 was > 50 µM.
For `COC(=O)CNC(=O)C12CC3(C)CC(C)(CC(C)(C3)C1)C2` [2-[[oxo-(3,5,7-trimethyl-1-adamantyl)methyl]amino]acetic acid methyl ester], the EC50 was > 50 µM.

From BindingDB's records for doi:10.7270/Q2N58JS6 (University of Pittsburgh, 2007)
